In patent US20230135524A1, “ARYL HYDANTOIN HETEROCYCLES AND METHODS OF USE” (The United States of America,as represented by the …, priority 2020, published 2023):

Columns and labels:
[1] = Pharmacokinetics in non-tumor bearing BALB/C mice, IV and PO; format: in vivo; conditions: for Cmax—D: dose-normalised; for Tmax / half-life: mouse, plasma
Procedure: FIG. 14A-B are graphs of time (hours) versus plasma concentration (ng/mL) for intravenous (IV) (FIG. 14A) and oral (PO) (FIG. 14B) administration of 15a and 15n over 12 hours. Error bars represent the standard deviation in ng/mL from three independent mice per time point.
Clearance, Cmax, half life, dose/AUC, and bioavailability were calculated by statistical analysis using PHOENIX™ WINNONLIN™ v7.0 (Certara, Princeton, N.J.). The results are shown in FIGS. 14A and 14B and Table 4.

[2] = tested on: LNCaP ARF876L; assay: IncuCyte % confluence cell growth inhibition, LNCaP ARF876L; format: cell-based; conditions: Homo sapiens, AR-positive, AR mutation F876L, % cell growth inhibition relative to DMSO
Procedure: (§1) Images were then analyzed to discern the % confluence of cells in each well. IC50 values were calculated from dose response curves of the % cell growth inhibition relative to DMSO control at the same time point per each cell line.

[3] = tested on: LAPC4; assay: IncuCyte % confluence cell growth inhibition, LAPC4; format: cell-based; conditions: Homo sapiens, LAPC4, read-out: IC50 values (μM), LAPC4
Procedure: as §1

[4] = tested on: DU145; assay: IncuCyte % confluence cell growth inhibition, DU145; format: cell-based; conditions: Homo sapiens, DU-145, read-out: IC50 values (μM), DU145
Procedure: as §1

[5] = target: T1, Aldosterone Receptor (UniProt P22199); assay: Radioligand competition binding, [3H] aldosterone; conditions: competition with [3H] aldosterone, 20 hours
T1 sequence (P22199 1-981): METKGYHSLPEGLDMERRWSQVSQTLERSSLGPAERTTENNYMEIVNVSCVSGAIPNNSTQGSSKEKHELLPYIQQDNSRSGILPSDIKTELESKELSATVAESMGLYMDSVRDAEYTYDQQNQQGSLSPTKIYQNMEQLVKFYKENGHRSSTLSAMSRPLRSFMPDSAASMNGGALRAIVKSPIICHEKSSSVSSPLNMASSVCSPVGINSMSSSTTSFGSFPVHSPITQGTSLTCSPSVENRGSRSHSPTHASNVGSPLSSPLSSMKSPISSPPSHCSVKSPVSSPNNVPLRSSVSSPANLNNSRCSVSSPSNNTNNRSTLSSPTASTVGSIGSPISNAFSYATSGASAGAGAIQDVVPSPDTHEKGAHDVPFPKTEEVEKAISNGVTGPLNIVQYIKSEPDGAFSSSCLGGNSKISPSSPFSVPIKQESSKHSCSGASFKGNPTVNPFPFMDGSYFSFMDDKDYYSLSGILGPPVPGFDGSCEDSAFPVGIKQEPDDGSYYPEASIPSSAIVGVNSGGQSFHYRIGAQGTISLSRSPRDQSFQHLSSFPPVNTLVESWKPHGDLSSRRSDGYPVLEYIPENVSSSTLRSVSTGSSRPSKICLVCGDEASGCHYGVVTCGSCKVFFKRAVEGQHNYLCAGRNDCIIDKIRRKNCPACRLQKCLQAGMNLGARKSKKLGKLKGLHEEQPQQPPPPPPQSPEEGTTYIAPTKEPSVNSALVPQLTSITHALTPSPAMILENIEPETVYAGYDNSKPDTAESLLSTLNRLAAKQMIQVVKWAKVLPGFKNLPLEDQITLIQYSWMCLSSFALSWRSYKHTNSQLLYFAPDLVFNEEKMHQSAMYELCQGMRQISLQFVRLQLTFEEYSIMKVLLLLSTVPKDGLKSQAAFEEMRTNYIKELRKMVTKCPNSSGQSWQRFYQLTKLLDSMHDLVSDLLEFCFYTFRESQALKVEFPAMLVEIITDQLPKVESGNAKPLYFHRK
Procedure: (§2) Binding assays were performed via competition with radioactive ligands across a range of dose of compounds 15a and 19d. For aldosterone binding, the aldosterone receptor was incubated for 20 hours with […] aldosterone. Similarly, the androgen receptor was co-incubated with 0.5 nM of [^3H] methyltrienolone, the estrogen receptor alpha was co-incubated with 0.5 nM [^3H] estradiol, the glucocorticoid receptor with 0.5 nM [^3H] dexamethasone, and the progesterone receptor with 0.5 nM [^3H] progesterone as parent ligands.

[6] = tested on: LNCaP; assay: IncuCyte % confluence cell growth inhibition, LNCaP; format: cell-based; conditions: Homo sapiens, read-out: IC50 values (μM), LNCaP
Procedure: as §1

[7] = tested on: LNCAP AR; assay: IncuCyte % confluence cell growth inhibition, LNCAP AR; format: cell-based; conditions: read-out: IC50 values (μM), LNCAP AR
Procedure: as §1

[8] = target: T2, Glucocorticoid Receptor (Homo sapiens, UniProt P04150); assay: Radioligand competition binding, [3H] dexamethasone; conditions: competition with 0.5 nM [3H] dexamethasone
T2 sequence (P04150 1-777): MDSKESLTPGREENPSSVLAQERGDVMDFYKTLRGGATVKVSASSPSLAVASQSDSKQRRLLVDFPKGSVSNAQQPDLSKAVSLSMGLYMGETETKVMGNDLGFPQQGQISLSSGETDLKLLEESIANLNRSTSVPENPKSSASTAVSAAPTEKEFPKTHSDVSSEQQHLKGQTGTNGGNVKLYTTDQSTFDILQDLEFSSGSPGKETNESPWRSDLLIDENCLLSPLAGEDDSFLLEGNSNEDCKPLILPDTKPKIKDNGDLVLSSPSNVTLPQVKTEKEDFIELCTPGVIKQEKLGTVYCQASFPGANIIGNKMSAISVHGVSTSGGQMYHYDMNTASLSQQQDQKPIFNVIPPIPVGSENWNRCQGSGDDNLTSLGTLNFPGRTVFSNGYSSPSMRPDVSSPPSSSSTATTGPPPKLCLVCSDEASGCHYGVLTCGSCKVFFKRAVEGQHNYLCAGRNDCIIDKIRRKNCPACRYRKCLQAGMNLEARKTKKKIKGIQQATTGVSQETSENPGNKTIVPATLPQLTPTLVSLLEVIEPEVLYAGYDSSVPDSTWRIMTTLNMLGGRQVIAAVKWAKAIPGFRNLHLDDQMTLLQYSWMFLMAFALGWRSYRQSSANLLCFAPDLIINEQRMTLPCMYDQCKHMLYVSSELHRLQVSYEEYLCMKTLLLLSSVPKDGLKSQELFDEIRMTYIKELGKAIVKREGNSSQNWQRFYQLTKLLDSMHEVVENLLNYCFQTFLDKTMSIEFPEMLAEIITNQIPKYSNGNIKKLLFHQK
Procedure: as §2

Row | Structure (SMILES) | Cmax—D ([1]; IV, 1 mg/kg) [kg·ng/mL/mg] | Cmax—D ([1]; PO, 20 mg/kg) [kg·ng/mL/mg] | Tmax ([1]; IV, 1 mg/kg) [h] | half-life ([1]; IV, 1 mg/kg) [min] | Tmax ([1]; PO, 20 mg/kg) [h] | half-life ([1]; PO, 20 mg/kg) [min] | IC50 [2] [µM] | IC50 [3] [µM] | IC50 [4] [µM] | IC50 [5] [nM] | IC50 [6] [µM] | IC50 [7] [µM] | IC50 [8] [nM]
1 | CC1(C)C(=O)N(c2ccc(C#N)c(C(F)(F)F)c2)C(=S)N1Cc1ccc(-c2c[nH]nn2)cc1 [Compound 15a, 4-(3-(4-(1H-1,2,3-triazol-4-yl)benzyl)-4,4-dimethyl-5-oxo-2-thioxoimidazolidin-1-yl)-2-(trifluoromethyl)benzonitrile] | 453 | 412 | 2 | 1080 | 2 | 1240 | 21 | 13.3 | 37.3 | > 10000 | 30.5 | 17 | > 10000
2 | CC1(C)C(=O)N(c2ccc(C#N)c(C(F)(F)F)c2)C(=S)N1Cc1ccc(-c2c[nH]nn2)cc1F [Compound 19d, 4-(3-(2-Fluoro-4-(1H-1,2,3-triazol-4-yl)benzyl)-4,4-dimethyl-5-oxo-2-thioxoimidazolidin-1-yl)-2-(trifluoromethyl)benzonitrile] | – | – | – | – | – | – | 22.3 | 16.3 | 53.6 | > 10000 | 35.7 | 28.2 | > 10000
